Usually Ki stands for a dissociation constant, usually derived from enzyme kinetics or from competition with a known ligand. Lower therefore signals a stronger hold on the target. The term pKi denotes the Ki on a negative log10 scale, so that one unit is a factor of ten.

This experiment can be described thus: Displacement of [3H]muscimol from GABAA receptor in Sprague-Dawley rat brain membrane`after 60 mins by TopCount microplate scintillation counting analysis. In general terms: In a radioligand displacement assay an active substance lowers the binding of a labelled ligand.
Regarding `Oc1noc(C2CCNCC2)c1-c1ccc2ccccc2c1`, the Ki came out at 0.036 µM and the pKi amounted to 7.44.

For `Oc1noc(C2CCNCC2)c1Cc1ccc2c(Br)cccc2c1`, the Ki is 0.08 µM and the pKi is given as 7.1.

In the case of `Oc1noc(C2CCNCC2)c1Cc1ccc2cccc(Br)c2c1`, the inhibition constant (Ki) came out at 0.045 µM and the pKi was 7.35.

On to `Oc1noc(C2CCNCC2)c1Cc1ccc2ccccc2c1F`, for which the Ki was determined as 0.019 µM and the pKi stood at 7.72.

Compound `Oc1noc(C2CCNCC2)c1Cc1cccc2ccccc12` showed a Ki of 0.1 µM and a pKi of 7.

`Oc1noc(C2CCNCC2)c1CCc1ccc2ccccc2c1`: the affinity corresponds to a Ki of 0.49 µM and the pKi is on record as 6.31.

In turn, `Oc1noc(C2CCNCC2)c1Cc1ccc2ccccc2c1-c1ccccc1` came in with an inhibition constant (Ki) of 0.021 µM and a pKi of 7.68.

In turn, `Oc1noc(C2CCNCC2)c1C(c1ccccc1)c1ccccc1` registered an inhibitory constant (Ki) of 0.96 µM and a pKi of 6.02.

Compound `On1nc(-c2ccccc2)c(C2CCNCC2)c1Cc1cccc2ccccc12` gave an inhibitory constant (Ki) of 1.5 µM and a pKi of 5.82.

Compound `Oc1noc(C2CCNCC2)c1-c1cccc2ccccc12` showed a Ki of 0.82 µM and a pKi of 6.09.

Consider `On1nc(Cc2cccc3ccccc23)c(C2CCNCC2)c1-c1ccccc1`, for which the Ki amounted to 0.022 µM and the pKi is 7.66.

`N#Cc1c(Cc2c(O)noc2C2CCNCC2)ccc2ccccc12` returned a Ki of 0.028 µM and a pKi of 7.55.

`Oc1noc(C2CCNCC2)c1Cc1ccc2ccc(Br)cc2c1` registered a Ki of 0.109 µM and a pKi of 6.96.

The compound `Oc1noc(C2CCNCC2)c1CCCC(c1ccccc1)c1ccccc1` returned a Ki of 0.7 µM and a pKi of 6.16.

As for `CC1(c2cc(O)no2)CCNCC1`, the Ki turned out to be 37 µM and the pKi turned out to be 4.43.

Compound `Oc1noc(C2CCNCC2)c1Cc1ccc2ccccc2c1Cl` registered an inhibitory constant (Ki) of 0.016 µM and a pKi of 7.8.

`CSc1c(Cc2c(O)noc2C2CCNCC2)ccc2ccccc12`: affinity was put at a Ki of 0.028 µM and the pKi was 7.55.

For the origin of these results see ChEMBL document CHEMBL3045445, “Structural features of GABAA receptor antagonists: pharmacophore modeling and 3D-QSAR studies” (Med Chem Res, 2013).
